Assay results reported in patent publication US20230365554A1, “SUBSTITUTED PYRROLO-PYRIDINONE DERIVATIVES AND THERAPEUTIC USES THEREOF” (The Broad Institute, Inc., priority 2020, published 2023).

Key:
[1] = biological target: wild-type Epidermal Growth Factor Receptor (EGFR) (Homo sapiens (Human), UniProt P00533); experiment: WT-EGFR kinase assay (TR-FRET, 2 mM ATP); type: biochemical; conditions: median or individual measurements, Table 3, read-out: EGFR Wildtyp-2mM ATP IC50 [mol/l] (median)
Source text: Inhibitory activity of compounds of the present invention against wild-type Epidermal Growth Factor Receptor (EGFR) was quantified employing the TR-FRET based EGFR assay as described in the following paragraphs.
Recombinant fusion protein of N-terminal Glutathion-S-Transferase (GST) and a fragment of human EGFR (amino acids R669 to A1210), expressed in Sf9 insect cells and purified via affinity chromatography using Glutathion Sepharose as described above, was used as kinase. As substrate for the kinase reaction the biotinylated peptide biotin-Ahx-AEEEEYFELVAKKK (C-terminus in amide form) was used which can be purchased e.g. form the company Biosynthan GmbH (Berlin-Buch, Germany).
For the assay 50 nl of a 100 fold concentrated solution of the test compound in DMSO was pipetted into either a black low volume 384 well microtiter plate or a black 1536 well microtiter plate (both Greiner Bio-One, Frickenhausen, Germany), 2 μL of a solution of EGFR in aqueous assay buffer [50 mM Hepes pH 7.0, 10 mM MgCl2, 1 mM dithiothreitol, 0.5 mM EGTA, 0.3 mM activated sodium ortho-vanadate, 0.005% (w/v) bovine serum albumin, 0.005% (v/v) Tween-20] were added and the mixture was incubated for 15 min at 22° C. to allow pre-binding of the test compounds to the enzyme before the start of the kinase reaction. Then the kinase reaction was started by the addition of 3 μL of a solution of adenosine-tri-phosphate (ATP, 3.33 mM=>final conc. in the 5 μL assay volume is 2 mM) and substrate (1.67 μM=>final conc. in the 5 μL assay volume is 1 μM) in assay buffer and the resulting mixture was incubated for a reaction time of 30 min at 22° C. The concentration of EGFR was adjusted depending of the activity of the enzyme lot and was chosen appropriate to have the assay in the linear range, typical concentration was 7.6 pg/μL. The reaction was stopped by the addition of 3 μL of a solution of HTRF detection reagents (83.3 nM streptavidine-XL665 [Cisbio Bioassays, Codolet, France] and 1.67 nM PT66-Tb-Cryptate, a terbium-cryptate labelled anti-phospho-tyrosine antibody from Cisbio Bioassays [instead of the PT66-Tb-cryptate PT66-Eu-Chelate from Perkin Elmer can also be used]) in an aqueous EDTA-solution (133.3 mM EDTA, 0.2% (w/v) bovine serum albumin in 50 mM HEPES pH 7.5).
The resulting mixture was incubated 1 h at 22° C. to allow the binding of the biotinylated phosphorylated peptide to the streptavidine-XL665 and the PT66-Tb-Cryptate. Subsequently the amount of phosphorylated substrate was evaluated by measurement of the resonance energy transfer from the PT66-Tb-Cryptate to the streptavidine-XL665. Therefore, the fluorescence emissions at 620 nm and 665 nm after excitation at 337 nm were measured in a HTRF reader, e.g. a Pherastar (BMG Labtechnologies, Offenburg, Germany) or a Viewlux (Perkin-Elmer). The ratio of the emissions at 665 nm and at […] was taken as the measure for the amount of phosphorylated substrate. The data were normalised (enzyme reaction without inhibitor=0% inhibition, all other assay components but no enzyme=100% inhibition).

[2] = biological target: human CSNK1D (Homo sapiens (Human), UniProt P48730); experiment: CSNK1D assay (ADP-Glo, 1 μM ATP); type: biochemical; conditions: median, Table 2, read-out: CSNK1D IC50 [mol/l] (median)
In short: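 GST-tagged full-length human CSNK1D (baculovirus/insect cell; typically about 0.5 ng/μL) preincubated with compound 15 min, then reacted 30 min at 22 °C with 1 μM ATP and 30 μM biotinylated peptide (final) in HEPES pH 7.5 buffer. ADP quantified by ADP-Glo luminescence; data normalised to no-inhibitor and no-enzyme controls.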

human CSNK1D, sequence (P48730 whole entry): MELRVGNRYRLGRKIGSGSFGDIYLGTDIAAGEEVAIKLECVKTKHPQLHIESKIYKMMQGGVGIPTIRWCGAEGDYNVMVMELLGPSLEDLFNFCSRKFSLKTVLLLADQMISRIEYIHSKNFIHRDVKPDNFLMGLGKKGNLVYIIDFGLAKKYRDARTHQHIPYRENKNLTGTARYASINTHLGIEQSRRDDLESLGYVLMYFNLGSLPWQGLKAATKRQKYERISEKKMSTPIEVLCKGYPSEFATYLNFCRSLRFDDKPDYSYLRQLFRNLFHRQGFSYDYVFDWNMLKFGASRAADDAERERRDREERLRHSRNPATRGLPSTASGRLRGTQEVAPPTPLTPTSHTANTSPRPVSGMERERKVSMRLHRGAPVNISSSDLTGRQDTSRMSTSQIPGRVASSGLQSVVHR
wild-type Epidermal Growth Factor Receptor (EGFR), sequence (P00533 669-1210): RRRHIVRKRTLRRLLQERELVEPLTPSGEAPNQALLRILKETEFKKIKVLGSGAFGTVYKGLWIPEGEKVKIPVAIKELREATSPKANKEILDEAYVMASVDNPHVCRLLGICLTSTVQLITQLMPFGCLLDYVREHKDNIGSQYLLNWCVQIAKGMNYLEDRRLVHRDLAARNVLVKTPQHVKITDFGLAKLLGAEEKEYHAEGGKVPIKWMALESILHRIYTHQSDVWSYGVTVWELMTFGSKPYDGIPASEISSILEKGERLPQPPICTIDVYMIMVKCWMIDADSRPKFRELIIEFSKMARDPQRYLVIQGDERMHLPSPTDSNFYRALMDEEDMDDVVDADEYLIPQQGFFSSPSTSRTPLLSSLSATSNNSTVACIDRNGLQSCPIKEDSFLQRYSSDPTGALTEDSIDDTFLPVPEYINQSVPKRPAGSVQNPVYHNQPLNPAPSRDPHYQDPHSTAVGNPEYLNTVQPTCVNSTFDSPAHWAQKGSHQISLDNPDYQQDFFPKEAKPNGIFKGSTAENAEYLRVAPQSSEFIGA

| SMILES | IC50 [1] [nM] | IC50 [2] [nM] |
| --- | --- | --- |
| CN1CC(CC(F)(F)F)c2[nH]c(-c3ccnc(NC(=O)C(CC(F)F)c4ccc(F)cc4)c3)c(Nc3cscn3)c2C1=O (single isomer, unassigned) [Example 54, (2R or S)-4,4-difluoro-2-(4-fluorophenyl)-N-{4-[(7R or S)-5-methyl-4-oxo-3-[(1,3-thiazol-4-yl)amino]-7-(2,2,2-trifluoroethyl)-4,5,6,7-tetrahydro-1H-pyrrolo[3,2-c]pyridin-2-yl]pyridin-2-yl}butanamide] | > 20000 | 4 |
| O=C1N[C@@H]2CCC[C@@H]2c2[nH]c(-c3ccnc(NC(=O)C(CC(F)F)c4ccc(F)cc4)c3)c(Nc3ccccc3)c21 (single isomer, unassigned; (+)) [Example 25, (+)-(2R or S)—N-{4-[cis-3-anilino-4-oxo-1,4,5,5a,6,7,8,8a-octahydrocyclopenta[b]pyrrolo[2,3-d]pyridin-2-yl]pyridin-2-yl}-4,4-difluoro-2-(4-fluorophenyl)butanamide] | > 20000 | 3.1 |
| CN1CC(CC(F)(F)F)c2[nH]c(-c3ccnc(NC(=O)Cc4ccc(F)cc4)c3)c(Nc3ccccc3)c2C1=O (single isomer, unassigned) [Example 15, N-{4-[3-anilino-5-methyl-4-oxo-7-(2,2,2-trifluoroethyl)-4,5,6,7-tetrahydro-1H-pyrrolo[3,2-c]pyridin-2-yl]pyridin-2-yl}-2-(4-fluorophenyl)acetamide] | 2900 | 20 |
| CC1CN(C)C(=O)c2c1[nH]c(-c1ccnc(NC(=O)C(C)c3ccc(F)cc3)c1)c2Nc1ccccc1 (racemic) [Example 9, N-{4-[(7RS)-3-anilino-5,7-dimethyl-4-oxo-4,5,6,7-tetrahydro-1H-pyrrolo[3,2-c]pyridin-2-yl]pyridin-2-yl}-2-(4-fluorophenyl)propanamide] | 13000 | 12 |
| Cn1cc(CC(F)(F)F)c2[nH]c(-c3ccnc(NC(=O)C(CC(F)F)c4ccc(F)cc4)c3)c(Nc3ccccc3)c2c1=O (single isomer, unassigned) [Example 37, N-{4-[3-anilino-5-methyl-4-oxo-7-(2,2,2-trifluoroethyl)-4,5-dihydro-1H-pyrrolo[3,2-c]pyridin-2-yl]pyridin-2-yl}-4,4-difluoro-2-(4-fluorophenyl)butanamide] | 120 | 15 |
| CCc1c[nH]c(=O)c2c(Nc3ccccc3)c(-c3ccnc(NC(=O)C(CC(F)F)c4ccc(F)cc4)c3)[nH]c12 (racemic) [Example 5, N-[4-(3-anilino-7-ethyl-4-oxo-4,5-dihydro-1H-pyrrolo[3,2-c]pyridin-2-yl)pyridin-2-yl]-4,4-difluoro-2-(4-fluorophenyl)butanamide] | 7300 | 6.4 |
| Cc1ccccc1Nc1c(-c2ccnc(NC(=O)Cc3ccc(F)cc3)c2)[nH]c2c(CC(F)(F)F)cn(C)c(=O)c12 [Example 33, 2-(4-fluorophenyl)-N-{4-[5-methyl-3-(2-methylanilino)-4-oxo-7-(2,2,2-trifluoroethyl)-4,5-dihydro-1H-pyrrolo[3,2-c]pyridin-2-yl]pyridin-2-yl}acetamide] | 7 | 6.2 |
| C[C@@H](C(=O)Nc1cc(-c2[nH]c3ccn(C)c(=O)c3c2Nc2ccccc2)ccn1)c1ccc(F)cc1 (single isomer, unassigned) [Example 27] | > 20000 | 28 |
| C[C@H](C(=O)Nc1cc(-c2[nH]c3ccn(C)c(=O)c3c2Nc2ccccc2)ccn1)c1ccc(F)cc1 (single isomer, unassigned) [Example 26] | > 20000 | 22 |
| Cn1cc(CC(F)(F)F)c2[nH]c(-c3ccnc(NC(=O)Cc4ccc(F)cc4)c3)c(Nc3ccccc3)c2c1=O [Example 34, N-{4-[3-anilino-5-methyl-4-oxo-7-(2,2,2-trifluoroethyl)-4,5-dihydro-1H-pyrrolo[3,2-c]pyridin-2-yl]pyridin-2-yl}-2-(4-fluorophenyl)acetamide] | 20 | 9.1 |
| CN1CC(CC(F)F)c2[nH]c(-c3ccnc(NC(=O)Cc4ccc(F)cc4)c3)c(Nc3ccccc3)c2C1=O (single isomer, unassigned) [Example 44, N-{4-[3-anilino-7-(2,2-difluoroethyl)-5-methyl-4-oxo-4,5,6,7-tetrahydro-1H-pyrrolo[3,2-c]pyridin-2-yl]pyridin-2-yl}-2-(4-fluorophenyl)acetamide] | 490 | 5.9 |
| CN1CC(CC(F)(F)F)c2[nH]c(-c3ccnc(NC(=O)Cc4ccc(F)cc4)c3)c(Nc3ccccc3)c2C1=O (single isomer, unassigned) [Example 16, N-{4-[3-anilino-5-methyl-4-oxo-7-(2,2,2-trifluoroethyl)-4,5,6,7-tetrahydro-1H-pyrrolo[3,2-c]pyridin-2-yl]pyridin-2-yl}-2-(4-fluorophenyl)acetamide] | 1800 | 7.1 |
| CN1CC(CC(F)(F)F)c2[nH]c(-c3ccnc(NC(=O)C(CC(F)F)c4ccc(F)cc4)c3)c(Nc3cscn3)c2C1=O (single isomer, unassigned) [Example 53, (2R or S)-4,4-difluoro-2-(4-fluorophenyl)-N-{4-[(7R or S)-5-methyl-4-oxo-3-[(1,3-thiazol-4-yl)amino]-7-(2,2,2-trifluoroethyl)-4,5,6,7-tetrahydro-1H-pyrrolo[3,2-c]pyridin-2-yl]pyridin-2-yl}butanamide] | > 20000 | 35 |
| CN1CC(CC2CC2)c2[nH]c(-c3ccnc(NC(=O)Cc4ccc(F)cc4)c3)c(Nc3cscn3)c2C1=O (racemic) [Example 49, N-{4-[(7RS)-7-(cyclopropylmethyl)-5-methyl-4-oxo-3-(1,3-thiazol-4-ylamino)-4,5,6,7-tetrahydro-1H-pyrrolo[3,2-c]pyridin-2-yl]pyridin-2-yl}-2-(4-fluorophenyl)acetamide] | > 20000 | 14 |
| CN1CC(CC2CC2)c2[nH]c(-c3ccnc(NC(=O)Cc4ccc(F)cc4)c3)c(Nc3ccccc3)c2C1=O (single isomer, unassigned) [Example 19, N-{4-[3-anilino-7-(cyclopropylmethyl)-5-methyl-4-oxo-4,5,6,7-tetrahydro-1H-pyrrolo[3,2-c]pyridin-2-yl]pyridin-2-yl}-2-(4-fluorophenyl)acetamide] | 1800 | 6.5 |
| O=C1N[C@@H]2CCC[C@@H]2c2[nH]c(-c3ccnc(NC(=O)C(CC(F)F)c4ccc(F)cc4)c3)c(Nc3ccccc3)c21 (mixture of isomers) [Example 21, (2RS)—N-{4-[cis-3-anilino-4-oxo-1,4,5,5a,6,7,8,8a-octahydrocyclopenta[b]pyrrolo[2,3-d]pyridin-2-yl]pyridin-2-yl}-4,4-difluoro-2-(4-fluorophenyl)butanamide] | 4500 | 18 |
| Cc1cn(C)c(=O)c2c(Nc3ccccc3)c(-c3ccnc(NC(=O)C(CC(F)F)c4ccc(F)cc4)c3)[nH]c12 (single isomer, unassigned) [Example 12, N-[4-(3-anilino-5,7-dimethyl-4-oxo-4,5-dihydro-1H-pyrrolo[3,2-c]pyridin-2-yl)pyridin-2-yl]-4,4-difluoro-2-(4-fluorophenyl)butanamide] | > 20000 | 160 |
| CN1CC(CC2CC2)c2[nH]c(-c3ccnc(NC(=O)Cc4ccc(F)cc4)c3)c(Nc3ccccc3)c2C1=O (racemic) [Example 18, N-{4-[3-anilino-7-(cyclopropylmethyl)-5-methyl-4-oxo-4,5,6,7-tetrahydro-1H-pyrrolo[3,2-c]pyridin-2-yl]pyridin-2-yl}-2-(4-fluorophenyl)acetamide] | 4300 | 12 |
